Converted amounts (≈) assume the structure as drawn.
Tested on: S. aureus ATCC 29213
Experiment: In vitro susceptibility test, antimicrobial dilution method (CLSI), MIC
Type: cell-based
Settings: Staphylococcus aureus, ATCC29213, read-out: MIC (Minimum Inhibitory Concentration)
Experimental: For all the tests performed, there was a positive control of antifungal activity using fluconazole (for Malassezia) and ceftriaxone (for the bacterial strains) and a negative control (absence of the compounds) wherein correct microbial growth was evaluated.

**Q.** How did the MIC turn out when C[C@@H]1O[C@@H](O[C@@H]2[C@@H](O)[C@H](OCCc3ccc(O)c(O)c3)O[C@H](CO)[C@H]2OC(=O)/C=C/c2ccc(O)c(O)c2)[C@H](O)[C@H](O)[C@H]1O [Verbascoside, verbascoside] was run?
**A.** 3000 µg/mL (≈ 4.8 mM)
